Reference: patent US6642265B1, “Thrombopoietin mimetics” (SmithKline Beecham Corporation, priority 2002, dated 2003)

Experiments:
TPO receptor = target: T1, TPO receptor (Homo sapiens, UniProt P40238); test: Luciferase assay in TPO-responsive BaF3 cell line; assay type: cell-based; settings: TPO-responsive murine BaF3 cells
T1 construct: expressed in transfected cells; host or cells: murine BaF3 cells
T1 sequence (P40238 26-635): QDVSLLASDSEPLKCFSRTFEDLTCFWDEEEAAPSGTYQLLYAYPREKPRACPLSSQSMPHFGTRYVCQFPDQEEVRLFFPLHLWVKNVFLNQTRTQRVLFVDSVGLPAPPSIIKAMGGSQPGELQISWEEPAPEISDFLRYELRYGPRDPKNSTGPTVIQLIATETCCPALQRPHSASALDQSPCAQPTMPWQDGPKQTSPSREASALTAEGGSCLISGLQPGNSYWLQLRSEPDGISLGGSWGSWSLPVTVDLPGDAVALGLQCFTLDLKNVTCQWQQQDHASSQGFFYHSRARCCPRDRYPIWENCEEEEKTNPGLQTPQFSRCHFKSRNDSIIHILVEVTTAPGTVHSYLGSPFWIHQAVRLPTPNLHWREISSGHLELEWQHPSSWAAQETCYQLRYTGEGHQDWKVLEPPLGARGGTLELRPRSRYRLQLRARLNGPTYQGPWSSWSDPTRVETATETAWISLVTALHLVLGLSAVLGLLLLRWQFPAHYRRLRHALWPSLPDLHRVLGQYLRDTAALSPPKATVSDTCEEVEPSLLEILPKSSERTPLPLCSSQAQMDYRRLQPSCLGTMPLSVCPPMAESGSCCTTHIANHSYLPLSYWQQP
Protocol: Compounds of the present invention were tested for potency as mimetics of the TPO receptor in a Luciferase assay such as described in Lamb, et al., Nucleic Acids Research 23: 3283-3289 (1995) and Seidel, et al., Proc. Natl. Acad. Sci. USA 92: 3041-3045 (1995) by substituting a TPO-responsive BaF3 cell line (Vigon et a). Proc. Natl. Acad. Sci. USA 1992, 89, 5640-5644) for the HepG2 cells utilized therein. The murine BaF3 cells express TPO receptors and closely match the pattern of STAT (signal transducers and activators of transcription) activation observed in primary murine and human bone marrow cells.

| melting point | EC50 (TPO receptor) [µM] | activity relative to TPO in the luciferase assay (TPO receptor; efficacy printed with the EC50) [% TPO] | SMILES |
| --- | --- | --- | --- |
| 240 °C (dec.) |  |  | Cc1ccc(-n2nc(C)c(N=Nc3cc(Cl)cc(S(=O)(=O)O)c3O)c2O)cc1C [Example 11, 5-Chloro-3-{[1-(3,4-dimethylphenyl)-5-hydroxy-3-methyl-1H-pyrazol-4-yl]azo}-2-hydroxybenzenesulfonic Acid] |
| 258 to 260 °C (dec.) |  |  | Cc1nn(-c2ccc(OCc3ccccc3)cc2)c(O)c1N=Nc1ccc(C(=O)O)cc1O [Example 3, 4-{[1-(4-Benzyloxyphenyl)-5-hydroxy-3-methyl-1H-pyrazol-4-yl]azo}-3-hydroxybenzoic Acid] |
|  | 1.8 | 50 | Cc1ccc(-n2nc(C)c(N=Nc3ccc(C(=O)O)cc3O)c2O)cc1C [Example 6, 4-{[1-(3,4-Dimethylphenyl)-5-hydroxy-3-methyl-1H-pyrazol-4-yl]azo}-3-hydroxybenzoic Acid] |
